Data set [1] has as its system Dx5 (MDR uterine sarcoma) cell line. The data set can be described thus: cells. The protocol: (§1) Cells and Transfections. H23 (non-small cell lung cancer) and ZR-75 (breast cancer) cell lines were purchased from ATCC. The Bcl-2 expression vector was provided by Fred Hutchinson Cancer Research Center, Seattle, Wash. MES-SA and Dx5 cell lines were provided by Branimir Sikic (Stanford University). Cells were cultured in the appropriate medium with 10% FCS supplemented with L-glutamine, penicillin and streptomycin. To examine the effect of Bcl-2 on cell survival, the Bcl-2 expression vector or the vector alone was co-transfected with a β galactosidase expression vector (Invitrogen, Carlsbad, Calif.) at a 5:1 ratio using lipofectamine plus (GIBCO BRL, Gaithersburg, Md.) into Dx5 cells. After 36 h cells were stained with 5-bromo4-chloro-3-indolyl […]-D-galactopyranoside (X-gal). Cell survival was calculated as number of total cells-blue cells/total number of cells in a 90 mm^2 area from duplicate plates and expressed as the mean ±S.D.
(§2) Cell death reagents and assays. Cell viability was measured by an MTT assay as recently described (Lee et al. (1999) J. Biol. Chem. 274:13451-13455. z-VAD-fluoromethylketone (z-VAD.fmk) was obtained from Alexis Biochemicals, San Diego, Calif. The effect of z-VAD.fmk on cell viability was analyzed by annexin and propidium iodide staining followed by FACS analysis according to the manufacturer's protocol (Clontech Laboratories, Palo Alto, Calif.). The analysis of apoptosis in histologic sections was done by terminal deoxynucleotidyl transferase (TdT)-mediated d-UTP nick end labeling (TUNEL) of slides from paraffin sections of day 3 tumors harvested from the mice 24 h after the second of two daily treatments with PG490-88 or saline. TUNEL staining was done according to the manufacturer's protocol (Boehringer Mannheim, Indianapolis, Ind.) and then the histology slides were counterstained with methyl green. DNA was isolated from cells for analysis of internucleosomal DNA laddering followed by agarose gel electrophoresis and ethidium bromide staining.
(§3) In FIG. 1A, ZR-75 (breast cancer), H23 (non-small cell lung cancer) and Dx5 (MDR uterine sarcoma) cell lines were treated with PG490 at dosages shown and harvested 48 h later for analysis of cell viability by an MTT assay. Data is the mean of three experiments ±S.D. In FIG. 1B, DNA was isolated from untreated or PG490-treated cells 16 h after the addition of PG490 followed by agarose gel electrophoresis and ethidium bromide staining.

For data set [2], the system named is H23 (non-small cell lung cancer) cell line. The data set can be described thus: cells. The procedure: as §1, §2, §3
In data set [3] the test system is ZR-75 (breast cancer) cell line. The data set can be described thus: cells. The note with it: ZR75, 48 h. The protocol:
as §1, §2, §3

Data set [4] concerns Dx5 cells. The data set can be described thus: Cell survival of Bcl-2 or vector transfected Dx5 cells (X-gal staining). The format is cell-based, human. The following applies: PG490 20 ng/ml, 36 h.
Experimental: Cells were cultured in the appropriate medium with 10% FCS supplemented with L-glutamine, penicillin and streptomycin. To examine the effect of Bcl-2 on cell survival, the Bcl-2 expression vector or the vector alone was co-transfected with a β galactosidase expression vector (Invitrogen, Carlsbad, Calif.) at a 5:1 ratio using lipofectamine plus (GIBCO BRL, Gaithersburg, Md.) into Dx5 cells. After 36 h cells were stained with 5-bromo4-chloro-3-indolyl □-D-galactopyranoside (X-gal). Cell survival was calculated as number of total cells-blue cells/total number of cells in a 90 mm^2 area from duplicate plates and expressed as the mean ±S.D.
Bcl-2 or vector control was transiently transfected into Dx5 cells followed by the addition of PG490 (20 ng/ml) and stained 36 h later with X-gal. % cell survival was calculated as total cells-blue cells/total cells×100. z-VAD.fmk (100 µM) was added to Dx5 cells 1 h prior to the addition of PG490 (20 ng/ml) and cells were harvested for analysis of cell viability 36 h later by annexin and propidium iodide staining followed by FACS analysis. Data represents the mean of three replicates from two independent experiments ±S.D.
The test system of data set [5] is p21. The data set can be described thus: p21 protein level by immunoblot in MCF-7 cells. The note with it: triptolide-treated MCF-7 cells. The format is cell-based, human. The procedure:
Immunoblotting. At 8 hours after triptolide and/or doxorubicin treatment cells were harvested at the times indicated and lysed using HNET buffer (50 mM HEPES pH 7.5, 100 mM NaCl, 1 mM EGTA, and 1% Triton X-100) supplemented with 1 mM DTT, 1 mM PMSF and protease inhibitors cocktail (Boehringer Mannheim, Germany). 35 μg of protein was loaded on 10% SDS-PAGE followed by transferring to PVDF membrane. Immunoblotting was performed as previously described using a p53 mouse monoclonal antibody from Oncogene Research Products (Lee et al. (1999) J Biol Chem 274:13451-5).
Immunoblot analysis using other antibodies was performed as described above. The band intensity was measured by NIH Image 1.62.

Data set [6] relates to HT1080 cells. The data set can be described thus: Apoptosis by Annexin V and Propidium Iodide staining, HT1080 cells. The format is cell-based, human. Also on record: unit of the concentration uncertain. The note with it: HT1080, 20 h; PG490 5 ng/ml; CPT-11 (5 µM) alone, (5 μM) in combination; PG490 pretreatment 4 h then CPT-11 16 h. The procedure: HT1080 cells were treated as shown and harvested for analysis of apoptosis by Annexin V and Propidium Iodide staining 20 h after treatment. In experiments with a combination of PG490 and CPT-11, cells were pretreated with PG490 for 4 h followed by the addition of CPT-11 for 16 h.

The test system of data set [7] is p53 mRNA. The data set can be described thus: p53 mRNA by Northern blot in HT1080 cells. In kind it is cell-based, human. The procedure: Northern Blot Analysis. RNA was prepared from HT1080 cells using RNeasy Mini Kit from Qiagen Inc. (Valencia, Calif.). cDNAs for Northern blot analysis for p21 and p53 were prepared using RT-PCR with […] of total RNA. The following primer pairs were used: p53, (SEQ ID NO:11) 5′-[…]-3′ and (SEQ ID NO:12) 5′-[…]-3′; p21, (SEQ ID NO:13) 5′-[…]-3′ and (SEQ ID NO:14) 5′-[…]-3′; and glyceraldehyde-3-phosphate dehydrogenase, (SEQ ID NO:15) 5′-[…]-3′ and 5′-(SEQ ID NO:16) […]-3′.

Data set [8] relates to DNA strand breaks.
Data set [9] concerns H23 human tumor cells. The procedure: as §2
Nude mouse xenograft model. Female NCr nude mice were purchased from Taconic, Germantown, N.Y., and were generally 20-24 grams when used. Mice were kept in autoclaved filter-top microisolator cages with autoclaved water and sterile food ad lib. The cages were maintained in an isolator unit providing filtered air (Lab Products, Inc., Maywood, N.J.). Tumor cells were grown and harvested as described above. NCr nude mice were injected intradermally with 5×10^6 tumor cells. In some experiments, treatment was initiated on the day of tumor cell implantation. […] Mice were treated IP daily for 5 days per week.
H23 tumor cells were implanted intradermally in nude mice. When the tumors reached approximately 100 mm^3, daily IP treatment with PG490-88 was initiated. […] The data in FIG. 3 represents the measurement of H23 tumor volume on day 14 after the initiation of treatment. Nude mice bearing xenografts of H23 human tumor cells were treated daily as shown. The data represent the means and the standard errors of the means of the tumor volumes as percent of the day 0 tumor volumes for each animal measured day 3, 6, 10 and 14 days after the initiation of treatment. There were 5 mice per group.

The structures appear in SMILES notation.

With `CC(C)[C@]12O[C@H]1[C@@H]1O[C@]13[C@]1(O[C@H]1C[C@H]1C4=C(CC[C@@]13C)C(=O)OC4)[C@@H]2O` [PG490, triptolide], the “difference in sensitivity between Dx5 cell line and parent MES-SA cell line” value in data set [1] is reported as “No significant difference”. For the same compound, the cytotoxicity at 0.01 µg/mL was 65 to 70% in [1] (Homo sapiens, 48 h, read-out: decrease in cell viability); 65 to 70% in [2] (Homo sapiens, NCI-H23, 48 h, read-out: decrease in cell viability); 24% in data set [3] (read-out: decrease in cell viability). Also, the cytotoxicity at 0.02 µg/mL in data set [1] (Homo sapiens, 48 h, read-out: reduction of cell viability) was over 80%; in [2] (Homo sapiens, NCI-H23, 48 h, read-out: reduction of cell viability), over 80%; in [3] (read-out: reduction of cell viability), over 80%. Moreover, in [2] (mutant p53 lung cancer cell line), the “cell death, % of cells” value is on record as “over 80%”. Also, the cell survival in [4] (overexpression of Bcl-2) was found to be 72%; in data set [4] (vector control) it was 15%. For the same compound, the “decrease in the level of p21 protein” value in data set [5] is on record as 3 fold. The “Apoptotic Cells (%)” value in [6] is 13.5%. Further, in data set [7], the “level of p53 mRNA” value is recorded as “not affected”. In data set [8], the DNA strand breaks entry is “does not induce DNA strand breaks”.
As for `CC(C)[C@]12O[C@H]1[C@@H]1O[C@]13[C@]1(O[C@H]1C[C@H]1C4=C(CC[C@@]13C)C(=O)OC4)[C@@H]2OC(=O)CCC(=O)[O-].[Na+]` [PG490-88, 14-succinyl triptolide sodium salt], the “decrease of mean tumor size from the initial value at day 0” value in [9] (PG490-88 0.75 mg/kg/day, day 14) stood at 61%. In addition, the “decrease of tumor size relative to the day 14 vehicle control” value in data set [9] (PG490-88 alone 0.75 mg/kg/day, combination PG490-88 0.25 mg/kg/day plus taxol 10 mg/kg/day) is listed as 97%. Besides, the “inhibition of tumor growth” value in data set [9] (daily IP PG490-88) was “inhibited tumor growth in a dose-dependent manner”. The “TUNEL staining of tumor sections” value in [9] (day 3 tumors, compared to saline-treated animals) was “many TUNEL-positive cells”. The “tumor volume as % of the vehicle control” value in data set [9] (day 14, PG490-88 0.25 mg/kg/day, taxol 10 mg/kg/day, IP) came out at 21%.

The values above are taken from US6599499B1, “Uses of diterpenoid triepoxides as an anti-proliferative agent” (priority 1999, dated 2003).
